From BindingDB's records for doi:10.1021/np100503q (The Ohio State University, 2010)

Molecular target: Transcription factor p65 (Human, UniProt Q04206)
Assay: Inhibition of NF-kappaB p65 isolated from nuclear extract of human HeLa cells assessed as blockade of binding to biotinylated consesus sequence by chemiluminescence assay

Chain of Transcription factor p65 (Q04206 whole entry): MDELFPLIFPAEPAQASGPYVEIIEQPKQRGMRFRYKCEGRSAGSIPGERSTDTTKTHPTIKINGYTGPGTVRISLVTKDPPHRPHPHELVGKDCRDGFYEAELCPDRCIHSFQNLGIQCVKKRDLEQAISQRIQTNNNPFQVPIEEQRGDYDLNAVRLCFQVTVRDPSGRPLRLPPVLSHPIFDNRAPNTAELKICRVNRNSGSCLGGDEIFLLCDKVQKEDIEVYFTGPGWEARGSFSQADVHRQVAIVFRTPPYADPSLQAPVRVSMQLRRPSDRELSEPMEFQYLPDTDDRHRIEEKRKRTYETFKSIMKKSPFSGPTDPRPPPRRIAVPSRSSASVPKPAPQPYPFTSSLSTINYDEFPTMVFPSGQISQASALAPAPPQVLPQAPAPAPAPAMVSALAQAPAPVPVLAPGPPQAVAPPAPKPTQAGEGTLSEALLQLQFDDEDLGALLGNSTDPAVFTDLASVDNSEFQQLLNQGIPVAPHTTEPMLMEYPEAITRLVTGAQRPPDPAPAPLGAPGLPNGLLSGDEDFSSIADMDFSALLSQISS

**Q.** For `COC(=O)[C@H]1[C@@H](O)[C@@]2(O)c3c(OC)cc(O[C@@H]4O[C@@H]([C@H](O)CO)CO[C@@H]4OC)cc3O[C@@]2(c2ccc(OC)cc2)[C@@H]1c1ccccc1` [5'''-episilvestrol], which IC50 is on record?
**A.** > 20 µM
